Measured values taken from patent US20210360915A1, “CRYOPRESERVING COMPOSITIONS” (UNIVERSITY OF WARWICK, priority 2018, published 2021).

Key:
E. coli [1] = assay: E. coli colony recovery after 7 freeze/thaw cycles; assay type: cell-based, Escherichia coli; parameters: Mean colonies recovered, E. coli, Total: dose or concentration left out as unconfirmed
Experimental: E. coli was added to different cryoprotective formulations and then exposed to 7 freeze/thaw cycles from liquid nitrogen (−196° C.) to room temperature (20° C.) and the number of colony forming units determined by growth on agar plates for 16 hours was recorded (see FIG. 2A). This was chosen to mimic laboratory conditions where stocks are often frozen and thawed during use.
In some down-stream applications, […].
(§1) Bacillus subtilis was chosen as a Gram positive strain and Mycobacterium smegmatis as a Mycobacteria (distinct cell wall compared to other Gram positives) for further analysis. Using the same conditions as for E. coli, the cells were exposed to 7 freeze/thaw cycles and recovered colonies counted, Table 1 and FIG. 4. To enable comparison of the data and to account for the different growth rates of each bacterial strain, the recovered colonies were also normalised to the highest recovery.

E. coli [2] = system: E. coli
Experimental: Each component (at the useful cryopreservation concentration) was incubated with E. coli overnight at 4° C. and subsequently the number of colony forming units determined, FIG. 2B.

E. coli [3] = assay: Post-thaw growth profile of E. coli by OD600; assay type: cell-based, Escherichia coli; conditions: 7 freeze/thaw cycles in liquid nitrogen, then inoculated into LB media
Excerpt: This macromolecular cryoprotection solution using ice-inhibiting polymers is clearly suitable for bacteria storage but there are many parameters which can be varied in this system including the molecular weight of the polymers. To enable a large number of conditions to be screened, the post-thaw growth rate of E. coli was also followed by OD600 (turbidity) measurements, which enable higher-throughput measurements. E. coli were frozen with the indicated formulations, and post-thaw inoculated into LB media and their growth monitored.
The improvement was most significant in the case of larger PEGs.

B. subtilis = B. subtilis colony recovery after 7 freeze/thaw cycles; assay type: cell-based, Bacillus subtilis
Excerpt: as §1

M. smegmatis = M. smegmatis colony recovery after 7 freeze/thaw cycles; assay type: cell-based, Mycobacterium smegmatis
Excerpt: as §1

β-Gal = β-Gal (Escherichia coli, UniProt P00722); conditions: 1 hour incubation without freeze/thaw
Chain of β-Gal (P00722 2-1024): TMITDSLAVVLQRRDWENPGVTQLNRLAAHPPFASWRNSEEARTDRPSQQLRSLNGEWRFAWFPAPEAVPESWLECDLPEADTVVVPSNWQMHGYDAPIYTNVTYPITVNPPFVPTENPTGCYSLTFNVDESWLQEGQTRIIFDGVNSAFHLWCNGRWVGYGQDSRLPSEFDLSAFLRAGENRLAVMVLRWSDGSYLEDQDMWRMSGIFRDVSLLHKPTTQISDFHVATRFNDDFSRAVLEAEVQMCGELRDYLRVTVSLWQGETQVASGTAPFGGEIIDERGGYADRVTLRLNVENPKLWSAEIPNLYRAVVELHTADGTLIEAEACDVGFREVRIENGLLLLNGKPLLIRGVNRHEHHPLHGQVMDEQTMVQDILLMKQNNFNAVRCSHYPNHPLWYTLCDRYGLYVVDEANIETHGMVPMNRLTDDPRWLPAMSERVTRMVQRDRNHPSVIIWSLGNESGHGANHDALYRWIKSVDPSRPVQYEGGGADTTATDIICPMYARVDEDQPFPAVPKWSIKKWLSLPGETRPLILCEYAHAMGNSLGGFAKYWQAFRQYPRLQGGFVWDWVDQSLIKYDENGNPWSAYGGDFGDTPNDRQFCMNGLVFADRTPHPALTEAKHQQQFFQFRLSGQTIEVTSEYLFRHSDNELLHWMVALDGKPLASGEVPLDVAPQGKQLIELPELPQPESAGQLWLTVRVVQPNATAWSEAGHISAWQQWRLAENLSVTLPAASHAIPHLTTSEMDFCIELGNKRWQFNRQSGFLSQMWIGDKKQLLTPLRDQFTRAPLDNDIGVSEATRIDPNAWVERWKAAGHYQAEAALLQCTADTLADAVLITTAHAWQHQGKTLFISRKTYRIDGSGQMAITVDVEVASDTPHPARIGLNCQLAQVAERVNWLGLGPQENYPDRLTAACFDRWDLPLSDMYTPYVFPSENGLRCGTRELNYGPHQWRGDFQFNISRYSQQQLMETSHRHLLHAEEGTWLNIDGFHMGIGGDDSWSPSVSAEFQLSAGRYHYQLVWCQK
Experimental: β-Gal activity was determined by a colorimetric assay involving the use of ONPG. Briefly aliquots of 30 μL of 4 mg·mL-1 ONPG were added to wells of a 96 well plate containing 50 μL of 20 μg·mL^−1 B-Gal solution. This was then incubated at room temperature for 5 minutes and quenched by addition of 50 μL of 1M Na2CO3 solution. Absorbance was measured at 420 nm.
Since under standard laboratory conditions, proteins are normally stored at −80° C. through long periods, we decided to test the levels of protein activity after long term ultra-low temperature conditions.

β-galactosidase (β-Gal) = assay: β-Gal activity recovery after frozen storage (ONPG assay); assay type: biochemical, bacterial; conditions: frozen at −20° C. for 3 days, thawed at 20° C.; PEG, PVP, Trehalose, HES 100 mg·mL^−1, PVA 1 mg·mL^−1
Experimental: Samples were made in triplicate at the appropriate concentrations and frozen in 1.5 mL tubes by directly placing in a freezer either at −20° C. or −80° C. The samples were then held at this temperature for the indicated time period and then thawed at 20° C.
Absorbance was measured at 420 nm. All other methods are in the supporting information.
Absorbance was measured at 420 nm.
Activity was tested after thawing at 20° C. (FIG. 6B).

[4] = concentrations as in table footnote, ± SD
[5] = normalised to the highest recovery

| Structure (SMILES) | recovered colonies (colony forming units) (E. coli [1]; 7 freeze (−196° C.)/thaw (20° C.) cycles, growth on agar plates for 16 hours, PEG/PVA 100 + 1 mg·mL^−1) | Mean colonies recovered, E. coli, Normalised (E. coli [1]; 7 freeze/thaw cycles, normalised to the highest recovery) | Mean colonies recovered, E. coli, Total (E. coli [1]; 7 freeze/thaw cycles, ± SD) | recovered colonies after overnight incubation with cryoprotectant (toxicity) (E. coli [2]) | post-thaw growth rate (OD600) (E. coli [3]) | Mean colonies recovered, B. subtilis, Total (B. subtilis; [4]) | Mean colonies recovered, B. subtilis, Normalised (B. subtilis; [5]) | Mean colonies recovered, M. smegmatis, Total (M. smegmatis; [4]) | Mean colonies recovered, M. smegmatis, Normalised (M. smegmatis; [5]) | β-Gal function after incubation with cryoprotectant (β-Gal) | protection of β-Gal activity (β-galactosidase (β-Gal)) |
| --- | --- | --- | --- | --- | --- | --- | --- | --- | --- | --- | --- |
| OCC(O)CO [25% Glycerol, glycerol] | 15 | 22% | 15 ± 2.8 | significant reduction in recovered colonies | essentially identical growth rates | 93 ± 18.9 | 35% | 30 ± 6.0 | 88% |  |  |
| OC[C@H]1O[C@H](O[C@H]2O[C@H](CO)[C@@H](O)[C@H](O)[C@H]2O)[C@H](O)[C@@H](O)[C@@H]1O [trehalose] |  |  |  |  |  |  |  |  |  | some negative effects on protein function | protected β-Gal activity |
